Consider two compounds from patent publication US20230146870A1, “METHOD TO QUANTIFY AFFINITY AND SELECTIVITY OF SMALL MOLECULES FOR PROTEINS IN LIVING CELLS” (Ohio State Innovation Foundation, priority 2021, published 2023).

“Also recorded” adds a separate entry of the source.

For assay [1], the target named is T1, native (untagged) murine PKCη (Mus musculus, UniProt P23298). The experiment in a line: FPCBA competition with probe 1, native PKCη in HEK293 cells. To be noted: read-out: Cellular Ki for native PKCη (95% confidence interval); probe 1 400 nM, BIM1 2 μM, 2 h at 37° C. The arrangement: expressed in transfected cells; host or cells: HEK293 (ATCC CRL-1573), transient transfection with pIRES-mVenus carrying the PKC gene. It counts as binding.
T1 sequence (P23298 whole entry): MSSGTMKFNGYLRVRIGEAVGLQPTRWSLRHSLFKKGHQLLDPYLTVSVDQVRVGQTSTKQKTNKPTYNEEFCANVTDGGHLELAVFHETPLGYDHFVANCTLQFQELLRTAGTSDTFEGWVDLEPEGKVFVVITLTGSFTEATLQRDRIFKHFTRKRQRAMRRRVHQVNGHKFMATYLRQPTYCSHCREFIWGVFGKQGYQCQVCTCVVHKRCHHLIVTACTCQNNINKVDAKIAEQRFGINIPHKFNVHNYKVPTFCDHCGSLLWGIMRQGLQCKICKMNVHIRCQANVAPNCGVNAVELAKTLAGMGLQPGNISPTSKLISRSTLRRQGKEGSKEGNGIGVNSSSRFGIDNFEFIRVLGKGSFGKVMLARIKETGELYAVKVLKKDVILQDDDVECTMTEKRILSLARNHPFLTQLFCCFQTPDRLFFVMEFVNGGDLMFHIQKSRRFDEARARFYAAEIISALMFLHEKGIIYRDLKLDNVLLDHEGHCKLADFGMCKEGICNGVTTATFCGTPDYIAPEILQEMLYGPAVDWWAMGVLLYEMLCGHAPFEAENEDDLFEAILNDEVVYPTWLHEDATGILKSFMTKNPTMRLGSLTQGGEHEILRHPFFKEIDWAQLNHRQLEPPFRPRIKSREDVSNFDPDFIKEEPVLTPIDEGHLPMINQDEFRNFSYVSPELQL

Assay [2] addresses native (untagged) murine PKCθ (Mus musculus, UniProt Q02111). Put plainly: FPCBA competition with probe 1, native PKCθ in HEK293 cells. Particulars: read-out: Cellular Ki for native PKCθ (95% confidence interval); probe 1 400 nM, BIM1 2 μM, 2 h at 37° C. It counts as binding. Also on record: expressed in transfected cells; host or cells: HEK293 (ATCC CRL-1573), transient transfection with pIRES-mVenus carrying the PKC gene.

Assay [3] has as its target T2, native (untagged) murine PKCβI (Mus musculus, UniProt P68404).
T2 construct: For coexpression of full-length unmodified PKC proteins with mVenus as an independent marker; expressed in transfected cells; host or cells: HEK293 (transient, pIRES-mVenus)
Put plainly: FPCBA competition with probe 1, native PKCβI in HEK293 cells. Particulars: read-out: Cellular Ki for native PKCβI (95% confidence interval); probe 1 400 nM, BIM1 2 μM, 2 h at 37° C. It counts as binding.

For assay [4], the target named is PKCη (Homo sapiens, UniProt P24723). To be noted: radiolabeled PDBu at 4° C.; read-out: Biochemical Ki, PKCη; cited from earlier work.
Sequence of PKCη (P24723 whole entry): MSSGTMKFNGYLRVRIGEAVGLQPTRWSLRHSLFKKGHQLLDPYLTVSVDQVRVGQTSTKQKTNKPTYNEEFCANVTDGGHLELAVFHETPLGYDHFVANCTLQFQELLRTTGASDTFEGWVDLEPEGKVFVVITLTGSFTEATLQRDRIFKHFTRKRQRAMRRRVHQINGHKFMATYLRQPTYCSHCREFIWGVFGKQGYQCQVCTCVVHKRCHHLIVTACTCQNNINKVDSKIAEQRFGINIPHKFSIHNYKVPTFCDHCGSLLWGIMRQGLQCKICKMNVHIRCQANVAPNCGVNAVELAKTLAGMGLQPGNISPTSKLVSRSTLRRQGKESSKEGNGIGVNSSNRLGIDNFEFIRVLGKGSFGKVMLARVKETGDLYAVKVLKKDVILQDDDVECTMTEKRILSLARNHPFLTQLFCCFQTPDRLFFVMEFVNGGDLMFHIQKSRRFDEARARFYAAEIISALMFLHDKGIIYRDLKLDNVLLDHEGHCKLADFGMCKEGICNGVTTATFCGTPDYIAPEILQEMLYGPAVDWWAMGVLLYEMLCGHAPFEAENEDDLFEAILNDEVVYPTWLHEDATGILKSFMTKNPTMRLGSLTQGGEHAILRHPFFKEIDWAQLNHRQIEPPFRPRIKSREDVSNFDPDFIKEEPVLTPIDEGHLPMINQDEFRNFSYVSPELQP
The target of assay [5] is T3, native (untagged) murine PKCδ (Mus musculus, UniProt P28867).
T3 construct: For coexpression of full-length unmodified PKC proteins with mVenus as an independent marker; expressed in transfected cells; host or cells: HEK293 (transient, pIRES-mVenus)
T3 sequence (P28867 whole entry): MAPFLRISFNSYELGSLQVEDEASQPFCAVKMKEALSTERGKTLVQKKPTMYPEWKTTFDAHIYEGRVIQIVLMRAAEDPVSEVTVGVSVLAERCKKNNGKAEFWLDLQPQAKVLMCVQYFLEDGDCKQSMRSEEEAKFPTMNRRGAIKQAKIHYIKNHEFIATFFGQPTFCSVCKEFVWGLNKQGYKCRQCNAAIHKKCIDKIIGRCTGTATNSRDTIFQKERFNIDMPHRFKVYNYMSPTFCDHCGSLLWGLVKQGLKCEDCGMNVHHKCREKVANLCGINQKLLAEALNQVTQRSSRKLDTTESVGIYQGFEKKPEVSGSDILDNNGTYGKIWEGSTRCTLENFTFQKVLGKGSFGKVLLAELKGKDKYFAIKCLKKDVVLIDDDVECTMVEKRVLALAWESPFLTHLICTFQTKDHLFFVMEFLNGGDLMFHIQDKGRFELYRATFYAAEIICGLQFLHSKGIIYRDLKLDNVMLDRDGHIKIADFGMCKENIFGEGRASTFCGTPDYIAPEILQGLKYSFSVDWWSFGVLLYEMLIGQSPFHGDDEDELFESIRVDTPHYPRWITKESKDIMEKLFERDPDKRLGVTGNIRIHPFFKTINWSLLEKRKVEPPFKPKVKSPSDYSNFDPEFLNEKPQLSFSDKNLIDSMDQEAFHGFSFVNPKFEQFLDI
Put plainly: FPCBA competition with probe 1, native PKCδ in HEK293 cells. Type of assay: binding. Particulars: read-out: Cellular Ki for native PKCδ (95% confidence interval); probe 1 400 nM, BIM1 2 μM, 2 h at 37° C.

Assay [6] concerns the target PKCγ (Homo sapiens, UniProt P05129). Particulars: radiolabeled PDBu at 4° C.; read-out: Biochemical Ki, PKCγ; cited from earlier work.
The target in assay [7] is T2, native (untagged) murine PKCβI. Put plainly: FPCBA saturation binding of probe 1, native PKCβI (IRES-mVenus) in HEK293 cells.
Source text: To measure the binding of 1 and 2 to PKCβI in cells, we used flow cytometry to analyze the blue fluorescence of transfected and non-transfected cells as a function of probe concentration at equilibrium (FIGS. 37A-37F). In these assays, we directly compared the PKCβI-mVenus fusion protein with native PKCβI expressed separately from mVenus. […] This low background signal facilitated saturation binding assays, where non-specific binding of probes to non-transfected cells was subtracted from total binding to highly transfected cells (P2 gate) to measure specific binding. […] We further compared cells treated with and without the orthosteric PKC catalytic inhibitor BIM1 to block the kinase activity of PKC and isolate the analysis of interactions of 1 and 2 with the C1 regulatory domains of PKCbI.
In assay [8] the target is T4, native (untagged) murine PKCζ (Mus musculus, UniProt Q02956).
T4 sequence (Q02956 1-592): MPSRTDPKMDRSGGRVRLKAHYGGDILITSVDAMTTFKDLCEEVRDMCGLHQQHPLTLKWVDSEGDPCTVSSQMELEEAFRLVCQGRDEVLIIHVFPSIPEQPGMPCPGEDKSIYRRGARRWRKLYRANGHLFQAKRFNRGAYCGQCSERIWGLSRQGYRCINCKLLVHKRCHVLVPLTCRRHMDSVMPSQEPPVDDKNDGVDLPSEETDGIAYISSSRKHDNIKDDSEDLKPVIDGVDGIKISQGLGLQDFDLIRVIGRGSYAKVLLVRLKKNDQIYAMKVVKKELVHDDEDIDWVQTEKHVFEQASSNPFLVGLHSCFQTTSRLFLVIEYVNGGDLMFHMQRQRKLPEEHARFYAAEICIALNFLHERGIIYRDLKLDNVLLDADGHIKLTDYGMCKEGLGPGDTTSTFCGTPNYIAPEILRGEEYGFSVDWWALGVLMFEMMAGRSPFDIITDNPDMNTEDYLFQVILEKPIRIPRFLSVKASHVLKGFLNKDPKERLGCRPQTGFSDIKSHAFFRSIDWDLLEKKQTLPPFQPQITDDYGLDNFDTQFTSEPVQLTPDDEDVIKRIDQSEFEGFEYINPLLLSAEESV
Put plainly: FPCBA saturation binding of probe 1, native PKCζ (IRES-mVenus) in HEK293 cells. Particulars: BIM1 2 μM, 2 h at 37° C., 4% FBS.

Assay [9] concerns the target T1, native (untagged) murine PKCη. Put plainly: FPCBA saturation binding of probe 1, native PKCη (IRES-mVenus) in HEK293 cells.
Assay [10] concerns the target T5, mouse PKCβI-mVenus (Mus musculus, UniProt P68404).
T5 construct: eight plasmids encoding full length mouse PKC isozymes fused to; expressed in transfected cells; host or cells: HEK293
Put plainly: Apparent cellular Kd by flow cytometry, HEK293 cells overexpressing PKCβI-mVenus (Example 2). It counts as binding. The procedure: The apparent Kd values of these fluorescent probes were measured using different PKC isozymes (e.g., PKCβI, FIGS. 20A-20D). HEK293 cells were transfected to overexpress PKCβ-mVenus and treated with probes in the presence of verapamil (100 μM) as an inhibitor of efflux.

Assay [11] has as its target murine PKCγ-mVenus (Mus musculus, UniProt P63318). Put plainly: FPCBA saturation binding of probe 1, HEK293 cells expressing PKCγ-mVenus (Example 3).
Assay [12] concerns HEK293 cells expressing PKCβI-mVenus. The experiment in a line: Kinetics of uptake of probes in HEK293 cells transiently transfected with PKCβI-mVenus. Particulars: probe 1 μM, room temperature, BIM1 2 μM, 4% FBS. Type of assay: cell-based. How it is done: Cells were treated with probes and analyzed by flow cytometry. […] [BIM1]=2 μM. [FBS]=4%.
To investigate the potential for quantitative analysis of binding to PKCs expressed in cells, we evaluated whether 1-3 could readily achieve equilibrium, which is necessary for measurements of cellular equilibrium dissociation constants (Kd).
The cells were re-suspended in fresh reduced serum media lacking antibiotics (4% FBS) at a cell density of ˜500,000 cells per mL and were added to a 96-well plate (100 μL per well). […] Fluorescent probes were prepared as absorbance-normalized 1 mM DMSO stock solutions and diluted into reduced serum DMEM media lacking antibiotics (4% FBS) to achieve a final concentration of the probe of 1 μM ([…]). [BIM1]=2 μM. After addition of probes, cells were analyzed at room temperature every 5 min as singletons. Living cells with the greatest green fluorescence from expression of mVenus (top 20%, transfected) and the lowest green fluorescence (bottom 20%, non-transfected) were gated to obtain median PB450 values of uptake of the fluorescent probes. For the slower kinetics of uptake of probe 3, cells were analyzed every 20 min in triplicate. These curves were fitted with a one-phase association model (GraphPad Prism 9) to determine t1/2 values.

In assay [13] the target is murine PKCζ-mVenus (Mus musculus, UniProt Q02956). The experiment in a line: FPCBA saturation binding of probe 1, HEK293 cells expressing PKCζ-mVenus (Example 3). To be noted: BIM1 2 μM, 2 h at 37° C., 4% FBS.

T2 sequence (P68404 2-673 isoform P68404-2): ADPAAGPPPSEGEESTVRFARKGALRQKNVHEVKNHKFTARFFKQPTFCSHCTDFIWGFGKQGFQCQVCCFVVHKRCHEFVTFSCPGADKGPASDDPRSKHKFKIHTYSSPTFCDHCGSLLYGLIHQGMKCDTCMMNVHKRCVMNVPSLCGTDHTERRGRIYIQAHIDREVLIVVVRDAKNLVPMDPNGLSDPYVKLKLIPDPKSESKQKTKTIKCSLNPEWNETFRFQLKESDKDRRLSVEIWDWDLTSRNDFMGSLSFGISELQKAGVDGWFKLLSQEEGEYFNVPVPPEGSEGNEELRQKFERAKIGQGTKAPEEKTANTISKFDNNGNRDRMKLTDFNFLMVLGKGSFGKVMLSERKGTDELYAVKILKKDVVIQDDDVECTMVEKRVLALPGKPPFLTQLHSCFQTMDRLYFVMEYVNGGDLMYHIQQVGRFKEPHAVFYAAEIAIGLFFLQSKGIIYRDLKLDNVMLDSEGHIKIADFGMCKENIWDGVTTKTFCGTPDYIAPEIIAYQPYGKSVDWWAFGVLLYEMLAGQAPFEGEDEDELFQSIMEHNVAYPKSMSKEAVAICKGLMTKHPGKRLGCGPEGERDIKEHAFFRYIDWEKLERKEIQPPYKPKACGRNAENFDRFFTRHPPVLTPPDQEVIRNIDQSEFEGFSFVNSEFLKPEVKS
T5 sequence (P68404 whole entry, the tested form may be a part): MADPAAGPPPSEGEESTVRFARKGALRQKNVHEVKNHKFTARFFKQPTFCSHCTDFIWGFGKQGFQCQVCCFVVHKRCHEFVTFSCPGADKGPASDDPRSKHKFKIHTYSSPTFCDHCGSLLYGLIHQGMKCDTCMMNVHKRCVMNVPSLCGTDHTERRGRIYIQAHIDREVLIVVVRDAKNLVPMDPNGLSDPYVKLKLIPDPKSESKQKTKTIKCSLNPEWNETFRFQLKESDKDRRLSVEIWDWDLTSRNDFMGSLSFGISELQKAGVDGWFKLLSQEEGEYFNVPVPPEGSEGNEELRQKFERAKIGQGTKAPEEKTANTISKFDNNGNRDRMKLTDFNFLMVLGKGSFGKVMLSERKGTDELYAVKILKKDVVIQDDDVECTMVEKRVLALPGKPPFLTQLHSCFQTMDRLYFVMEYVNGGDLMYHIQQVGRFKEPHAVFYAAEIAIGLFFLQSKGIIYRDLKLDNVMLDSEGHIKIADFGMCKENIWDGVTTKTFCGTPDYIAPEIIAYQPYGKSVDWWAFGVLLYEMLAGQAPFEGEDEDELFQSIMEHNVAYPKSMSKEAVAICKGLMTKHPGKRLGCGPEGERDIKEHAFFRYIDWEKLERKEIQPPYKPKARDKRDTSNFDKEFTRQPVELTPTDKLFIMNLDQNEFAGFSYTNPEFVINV

On to `CCC/C=C/C=C/C(=O)O[C@H]1/C(=C/C(=O)OC)C[C@H]2C[C@H]([C@@H](C)O)OC(=O)C[C@H](O)C[C@@H]3C[C@H](OC(C)=O)C(C)(C)[C@](O)(C[C@@H]4C/C(=C/C(=O)OC)C[C@H](/C=C/C(C)(C)[C@]1(O)O2)O4)O3` [bryostatin 1], for which the Ki in assay [1] is 0.009 µM; in assay [2], 0.008 µM; in assay [3] it was 0.004 µM; in assay [4] it was 0.0022 µM; in assay [5], 0.02 µM; in assay [6], 0.0022 µM.

On to `CCCCCCN(CCCCCCCCCCCCNC(=O)c1cc2cc(F)c(O)c(F)c2oc1=O)C(=O)O[C@@]12[C@H](O)[C@@H](C)[C@@]3(O)[C@@H](C=C(CO)C[C@]4(O)C(=O)C(C)=C[C@@H]34)[C@@H]1C2(C)C` [probe 1, (1aR,1bS,4aR,7aS,7bS,8R,9R,9aS)-4a,7b,9-trihydroxy-3-(hydroxymethyl)-1,1,6,8-tetramethyl-5-oxo-1,1a,1b,4,4a,5,7a,7b,8,9-decahydro-9aH-cyclopropa[3,4]benzo[1,2-e]azulen-9a-yl (12-(6,8-difluoro-7-hydroxy-2-oxo-2H-chromene-3-carboxamido)dodecyl)(hexyl)carbamate], for which the “affinity of native untagged PKCβI relative to PKCβI-mVenus fusion” value in [7] is given as ~2 fold. Besides, the Kd in assay [7] (IRES-mVenus, BIM1 2 μM, 2 h at 37° C., 4% FBS, read-out: Cellular Kd for probe, native PKCβI) was determined as 0.097 µM; in assay [9] it was 0.177 µM; in assay [10], 0.19 µM; in assay [11], 0.391 ± 0.142 µM. The “Cellular Kd for probe, native PKCζ” value in assay [8] is reported as “did not bind; also recorded: No binding”. Moreover, the “half-time (t1/2) of cellular uptake in transfected cells” value in [12] was 4 min. Moreover, the “Cellular Kd for probe, PKCζ-mVenus” value in assay [13] is given as “No binding”.
